Assay results taken from ChEMBL document CHEMBL2040728, “New substituted 4H-chromenes as anticancer agents” (Bioorg Med Chem Lett, 2012).

How the values were obtained:
LNCaP = assay: Antiproliferative activity against human LNCAP cells after 96 hrs by SRB assay; type: functional, cell-based
PC-3 [1] = assay: Antiproliferative activity against human PC3 cells after 96 hrs by SRB assay; type: functional, cell-based; settings: PC-3, 96 h
A-375 = assay: Antiproliferative activity against human A375 cells after 48 hrs by SRB assay; type: functional, cell-based; settings: A-375, 48 h
[2] = Antiproliferative activity against human WM164 cells after 48 hrs by SRB assay; type: functional, cell-based; settings: WM164, 48 h
[3] = Antiproliferative activity against human paclitaxel-resistant PC3-TxR cells after 96 hrs by SRB assay; type: functional, cell-based
HOP-92 = assay: Cytotoxicity against human HOP92 cells assessed as growth at 10 uM; type: functional; settings: read-out: Activity
A549 = assay: Cytotoxicity against human A549 cells assessed as growth at 10 uM; type: functional; settings: read-out: Activity
CAKI-1 = assay: Cytotoxicity against human Caki1 cells assessed as growth at 10 uM; type: functional; settings: read-out: Activity
LOX IMVI = assay: Cytotoxicity against human LOXIMVI cells assessed as growth at 10 uM; type: functional; settings: read-out: Activity
COLO 205 = assay: Cytotoxicity against human COLO205 cells assessed as growth at 10 uM; type: functional; settings: read-out: Activity
UO-31 = assay: Cytotoxicity against human UO31 cells assessed as growth at 10 uM; type: functional; settings: read-out: Activity
SK-MEL-28 = assay: Cytotoxicity against human SK-MEL-28 cells assessed as growth at 10 uM; type: functional; settings: read-out: Activity
HOP-62 = assay: Cytotoxicity against human HOP62 cells assessed as growth at 10 uM; type: functional; settings: read-out: Activity
[4] = Antiproliferative activity against human U87 cells after 5 days by MTT assay; type: functional, cell-based, U-87MG ATCC; settings: U-87 MG, 120 h
NCI/ADR-RES = assay: Cytotoxicity against human NCI/ADR-RES cells assessed as growth at 10 uM; type: functional; settings: read-out: Activity
NCI-H322M = assay: Cytotoxicity against human NCI-H322M cells assessed as growth at 10 uM; type: functional; settings: read-out: Activity
HCT-116 = assay: Cytotoxicity against human HCT116 cells assessed as growth at 10 uM; type: functional; settings: read-out: Activity
MDA-MB-231 = assay: Cytotoxicity against human MDA-MB-231 cells assessed as growth at 10 uM; type: functional; settings: read-out: Activity
OVCAR-3 = assay: Cytotoxicity against human OVCAR3 cells assessed as growth at 10 uM; type: functional; settings: read-out: Activity
TK-10 = assay: Cytotoxicity against human TK10 cells assessed as growth at 10 uM; type: functional; settings: read-out: Activity
KM12 = assay: Cytotoxicity against human KM12 cells assessed as growth at 10 uM; type: functional; settings: read-out: Activity
BT-549 = assay: Cytotoxicity against human BT549 cells assessed as growth at 10 uM; type: functional; settings: read-out: Activity
HL-60(TB) = assay: Cytotoxicity against human HL-60(TB) cells assessed as growth at 10 uM; type: functional; settings: read-out: Activity
SK-MEL-2 = assay: Cytotoxicity against human SK-MEL-2 cells assessed as growth at 10 uM; type: functional; settings: read-out: Activity
SF-295 = assay: Cytotoxicity against human SF295 cells assessed as growth at 10 uM; type: functional; settings: read-out: Activity
T47D = assay: Cytotoxicity against human T47D cells assessed as growth at 10 uM; type: functional; settings: read-out: Activity
U-251 = assay: Cytotoxicity against human U251 cells assessed as growth at 10 uM; type: functional; settings: read-out: Activity
SNB-19 = assay: Cytotoxicity against human SNB19 cells assessed as growth at 10 uM; type: functional; settings: read-out: Activity
[5] = Antiproliferative activity against human LN18 cells after 5 days by MTT assay; type: functional, cell-based; settings: LN-18, 120 h
MDA-MB-468 = assay: Cytotoxicity against human MDA-MB-468 cells assessed as growth at 10 uM; type: functional; settings: read-out: Activity
OVCAR-4 = assay: Cytotoxicity against human OVCAR4 cells assessed as growth at 10 uM; type: functional; settings: read-out: Activity
MCF7 = assay: Cytotoxicity against human MCF7 cells assessed as growth at 10 uM; type: functional; settings: read-out: Activity
786-0 = assay: Cytotoxicity against human 786-0 cells assessed as growth at 10 uM; type: functional; settings: read-out: Activity
[6] = Antiproliferative activity against human A172 cells after 5 days by MTT assay; type: functional, cell-based; settings: A 172, 120 h
IGROV-1 = assay: Cytotoxicity against human IGROV1 cells assessed as growth at 10 uM; type: functional; settings: read-out: Activity
[7] = Cytotoxicity against mouse primary astrocytes after 5 days by MTT assay; type: cell-based; settings: Astrocyte, 120 h
HCC 2998 = assay: Cytotoxicity against human HCC2998 cells assessed as growth at 10 uM; type: functional; settings: read-out: Activity
EKVX = assay: Cytotoxicity against human EKVX cells assessed as growth at 10 uM; type: functional; settings: read-out: Activity
Malme-3M = assay: Cytotoxicity against human MALME-3M cells assessed as growth at 10 uM; type: functional; settings: read-out: Activity
SF-268 = assay: Cytotoxicity against human SF268 cells assessed as growth at 10 uM; type: functional; settings: read-out: Activity
NCI-H226 = assay: Cytotoxicity against human NCI-H226 cells assessed as growth at 10 uM; type: functional; settings: read-out: Activity
K562 = assay: Cytotoxicity against human K562 cells assessed as growth at 10 uM; type: functional; settings: read-out: Activity
SK-OV-3 = assay: Cytotoxicity against human SKOV3 cells assessed as growth at 10 uM; type: functional; settings: read-out: Activity
UACC-257 = assay: Cytotoxicity against human UACC257 cells assessed as growth at 10 uM; type: functional; settings: read-out: Activity
NCI-H522 = assay: Cytotoxicity against human NCI-H522 cells assessed as growth at 10 uM; type: functional; settings: read-out: Activity
RXF 393 = assay: Cytotoxicity against human RXF393 cells assessed as growth at 10 uM; type: functional; settings: read-out: Activity
SW-620 = assay: Cytotoxicity against human SW620 cells assessed as growth at 10 uM; type: functional; settings: read-out: Activity
ACHN = assay: Cytotoxicity against human ACHN cells assessed as growth at 10 uM; type: functional; settings: read-out: Activity
SK-MEL-5 = assay: Cytotoxicity against human SK-MEL-5 cells assessed as growth at 10 uM; type: functional; settings: read-out: Activity
SF-539 = assay: Cytotoxicity against human SF539 cells assessed as growth at 10 uM; type: functional; settings: read-out: Activity
NCI-H460 = assay: Cytotoxicity against human NCI-H460 cells assessed as growth at 10 uM; type: functional; settings: read-out: Activity
DU-145 = assay: Cytotoxicity against human DU145 cells assessed as growth at 10 uM; type: functional; settings: read-out: Activity
M14 = assay: Cytotoxicity against human M14 cells assessed as growth at 10 uM; type: functional; settings: read-out: Activity
UACC-62 = assay: Cytotoxicity against human UACC62 cells assessed as growth at 10 uM; type: functional; settings: read-out: Activity
SNB-75 = assay: Cytotoxicity against human SNB75 cells assessed as growth at 10 uM; type: functional; settings: read-out: Activity
MDA-MB-435 = assay: Cytotoxicity against human MDA-MB-435 cells assessed as growth at 10 uM; type: functional; settings: read-out: Activity
RPMI-8226 = assay: Cytotoxicity against human RPMI8226 cells assessed as growth at 10 uM; type: functional; settings: read-out: Activity
[8] = Cytotoxicity against human Hs 578T cells assessed as growth at 10 uM; type: functional; settings: read-out: Activity
MOLT-4 = assay: Cytotoxicity against human MOLT4 cells assessed as growth at 10 uM; type: functional; settings: read-out: Activity
HT-29 = assay: Cytotoxicity against human HT-29 cells assessed as growth at 10 uM; type: functional; settings: read-out: Activity
NCI-H23 = assay: Cytotoxicity against human NCI-H23 cells assessed as growth at 10 uM; type: functional; settings: read-out: Activity
OVCAR-8 = assay: Cytotoxicity against human OVCAR8 cells assessed as growth at 10 uM; type: functional; settings: read-out: Activity
CCRF-CEM = assay: Cytotoxicity against human CCRF-CEM cells assessed as growth at 10 uM; type: functional; settings: read-out: Activity
OVCAR-5 = assay: Cytotoxicity against human OVCAR5 cells assessed as growth at 10 uM; type: functional; settings: read-out: Activity
PC-3 [9] = assay: Cytotoxicity against human PC3 cells assessed as growth at 10 uM; type: functional; settings: read-out: Activity
SN12C = assay: Cytotoxicity against human SN12C cells assessed as growth at 10 uM; type: functional; settings: read-out: Activity
HCT-15 = assay: Cytotoxicity against human HCT15 cells assessed as growth at 10 uM; type: functional; settings: read-out: Activity
T98G = assay: Antiproliferative activity against human T98G cells after 5 days by MTT assay; type: functional, cell-based; settings: 120 h

COc1ccc(C2C(C#N)=C(N)Oc3cc(N(C)C)ccc32)c2ccccc12 (centres undefined)
IC50 (LNCaP): 0.76 µM
IC50 (PC-3 [1]): 0.43 µM
IC50 (A-375): 0.44 µM
IC50 [2]: 0.49 µM
IC50 [3]: 0.53 µM

CN(C)c1ccc2c(c1)OC(N)=C(C#N)C2c1cccc2c(F)cccc12 (centres undefined)
growth at 10 µM (HOP-92): -2.42%
growth at 10 µM (A549): 11.5%
growth at 10 µM (CAKI-1): 22.9%
IC50 (LNCaP): 0.25 µM
growth at 10 µM (LOX IMVI): 5.96%
growth at 10 µM (COLO 205): -38.1%
growth at 10 µM (UO-31): 49.4%
growth at 10 µM (SK-MEL-28): 54.1%
growth at 10 µM (HOP-62): 39.8%
IC50 [4]: 0.0629 µM
growth at 10 µM (NCI/ADR-RES): -6.17%
growth at 10 µM (NCI-H322M): 45.4%
growth at 10 µM (HCT-116): -5.99%
growth at 10 µM (MDA-MB-231): 31.9%
growth at 10 µM (OVCAR-3): -35.4%
growth at 10 µM (TK-10): 45.8%
IC50 (PC-3 [1]): 0.42 µM
growth at 10 µM (KM12): -0.79%
growth at 10 µM (BT-549): -12.8%
growth at 10 µM (HL-60(TB)): -18.4%
growth at 10 µM (SK-MEL-2): 27.9%
growth at 10 µM (SF-295): 8.13%
growth at 10 µM (T47D): 61.8%
growth at 10 µM (U-251): 6.44%
growth at 10 µM (SNB-19): 39%
IC50 [5]: 0.0804 µM
growth at 10 µM (MDA-MB-468): 27.6%
growth at 10 µM (OVCAR-4): 27.3%
growth at 10 µM (MCF7): 13.3%
growth at 10 µM (786-0): 16.8%
IC50 [6]: 0.0207 µM
growth at 10 µM (IGROV-1): 32.3%
IC50 [7]: 9.45 µM
growth at 10 µM (HCC 2998): 7.74%
growth at 10 µM (EKVX): 36.7%
growth at 10 µM (Malme-3M): 49.6%
IC50 (A-375): 0.13 µM
growth at 10 µM (SF-268): 24.8%
growth at 10 µM (NCI-H226): 0%
growth at 10 µM (K562): 6.85%
growth at 10 µM (SK-OV-3): 5.75%
growth at 10 µM (UACC-257): 51.5%
growth at 10 µM (NCI-H522): -17.5%
growth at 10 µM (RXF 393): 7.11%
growth at 10 µM (SW-620): 23.5%
growth at 10 µM (ACHN): 27.6%
growth at 10 µM (SK-MEL-5): 13.7%
growth at 10 µM (SF-539): -7.29%
growth at 10 µM (NCI-H460): 1.28%
growth at 10 µM (DU-145): -16.5%
growth at 10 µM (M14): -1.53%
growth at 10 µM (UACC-62): 38.9%
growth at 10 µM (SNB-75): 22.3%
growth at 10 µM (MDA-MB-435): -32.4%
growth at 10 µM (RPMI-8226): 20.5%
growth at 10 µM [8]: 19.2%
growth at 10 µM (MOLT-4): 13.9%
growth at 10 µM (HT-29): -3.8%
growth at 10 µM (NCI-H23): -0.47%
growth at 10 µM (OVCAR-8): -23.4%
IC50 [2]: 0.22 µM
growth at 10 µM (CCRF-CEM): 11.3%
IC50 [3]: 0.19 µM
growth at 10 µM (OVCAR-5): 27.6%
growth at 10 µM (PC-3 [9]): 14.4%
growth at 10 µM (SN12C): 16.4%
growth at 10 µM (HCT-15): 6.89%

Cn1nnc2c(C(N)=O)ncn2c1=O [TEMOZOLOMIDE]
IC50 [4]: 49 µM
IC50 (T98G): 570 µM
IC50 [5]: 390 µM
IC50 [6]: 65 µM
IC50 [7]: > 1000 µM

COc1cc2c(c(OC)c1OC)-c1ccc(OC)c(=O)cc1[C@@H](NC(C)=O)CC2 [COLCHICINE]
IC50 [2]: 0.03 µM
IC50 [3]: 0.02 µM
